# According to patent publication US8361998B2, “Compounds and their use as IKACh blockers” (AstraZeneca AB, priority 2010, dated 2013):
# Target: T1, human cardiac ion channel proteins hKir3.1/Kir3.4 (Homo sapiens, UniProt P48544+P48549)
# T1 construct: expressed in transfected cells
# T1 sequence (P48549 1-501): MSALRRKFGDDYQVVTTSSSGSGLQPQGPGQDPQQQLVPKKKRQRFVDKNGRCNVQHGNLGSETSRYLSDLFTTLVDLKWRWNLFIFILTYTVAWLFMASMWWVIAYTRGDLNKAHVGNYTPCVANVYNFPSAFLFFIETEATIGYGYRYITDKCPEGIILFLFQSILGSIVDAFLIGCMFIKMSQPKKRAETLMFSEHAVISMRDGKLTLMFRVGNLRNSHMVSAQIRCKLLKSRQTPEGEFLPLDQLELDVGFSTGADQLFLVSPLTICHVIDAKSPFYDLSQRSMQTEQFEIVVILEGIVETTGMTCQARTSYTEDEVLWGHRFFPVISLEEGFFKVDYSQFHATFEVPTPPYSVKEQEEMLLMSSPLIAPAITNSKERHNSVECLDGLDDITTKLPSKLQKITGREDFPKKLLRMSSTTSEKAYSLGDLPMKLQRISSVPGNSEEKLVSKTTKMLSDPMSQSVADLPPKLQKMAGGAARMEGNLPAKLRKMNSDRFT
# T1 sequence (P48544 1-419): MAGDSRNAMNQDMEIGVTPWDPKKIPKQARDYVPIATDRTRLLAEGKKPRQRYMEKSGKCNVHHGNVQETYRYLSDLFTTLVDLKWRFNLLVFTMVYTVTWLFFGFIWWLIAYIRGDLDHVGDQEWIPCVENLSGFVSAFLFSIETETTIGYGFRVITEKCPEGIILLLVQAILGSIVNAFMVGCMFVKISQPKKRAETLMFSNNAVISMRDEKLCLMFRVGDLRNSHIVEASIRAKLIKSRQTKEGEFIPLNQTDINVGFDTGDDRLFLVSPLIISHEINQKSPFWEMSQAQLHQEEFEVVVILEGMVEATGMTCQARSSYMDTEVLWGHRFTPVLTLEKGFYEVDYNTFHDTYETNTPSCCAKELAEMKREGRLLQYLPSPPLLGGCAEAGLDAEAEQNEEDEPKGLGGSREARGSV
# Assay: Atomic Absorption Screening (AAS) Rb efflux assay of hKir3.1/Kir3.4 block, carbachol/high K+ stimulated, 10-pt or 7-pt CR
# Format: cell-based
# Conditions: 10-pt CR (0.003 to 67 μmol/L), AAS Rb efflux, CHO-K1 cells expressing hKir3.1/Kir3.4; mean of >4 replicates; read-out: IKACh IC50 10-pt CR, AAS
# Outline: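 CHO-K1 cells stably co-expressing human Kir3.1/Kir3.4 were Rb-loaded for 3 h at 37° C, preincubated with compound 5 min at RT, then stimulated 10 min with 10 μM carbachol plus 20 mM KCl (final). Supernatant Rb was measured by atomic absorption. Compounds ran at 0.003–67 μmol/L (10-pt) or 0.037–27 μmol/L (7-pt), threefold dilutions; IC50s are means of >4 or >3 replicates respectively.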
row,Structure (SMILES),IC50
1,"COC1CCN(C[C@H](C(C)C)N(C)C(=O)c2ccc(Cl)cc2)CC1 [Example 3.7, (S)-4-Chloro-N-(1-(4-methoxypiperidin-1-yl)-3-methylbutan-2-yl)-N-methylbenzamide]",1.3 µM
2,"COC1CCN(C[C@H](C(C)C)N(C)C(=O)c2ccc(F)c(C)c2)CC1 [Example 3.8, (S)-4-Fluoro-N-(1-(4-methoxypiperidin-1-yl)-3-methylbutan-2-yl)-N,3-dimethylbenzamide]",4.8 µM
3,"COC1CCN(C[C@H](C(C)C)N(C)C(=O)c2ccc(F)c(Cl)c2)CC1 [Example 3.9, (S)-3-Chloro-4-fluoro-N-(1-(4-methoxypiperidin-1-yl)-3-methylbutan-2-yl)-N-methylbenzamide]",3 µM
4,"COC1CCN(C[C@H](C(C)C)N(C)C(=O)c2cccc(C)c2)CC1 [Example 3.10, (S)-N-(1-(4-Methoxypiperidin-1-yl)-3-methylbutan-2-yl)-N,3-dimethylbenzamide]",14 µM
5,"COc1cc(C(=O)N(C)[C@H](CN2CCC(OC)CC2)C(C)C)ccc1C [Example 3.11, (S)-3-Methoxy-N-(1-(4-methoxypiperidin-1-yl)-3-methylbutan-2-yl)-N,4-dimethylbenzamide]",7.2 µM
6,"COC1CCN(C[C@H](C(C)C)N(C)C(=O)c2ccc(C)c(C)c2)CC1 [Example 3.12, (S)-N-(1-(4-Methoxypiperidin-1-yl)-3-methylbutan-2-yl)-N,3,4-trimethylbenzamide]",2.5 µM
7,"Cc1cc(C(=O)N(C)[C@H](CN2CCCC2)C2CC2)ccc1F [Example 3.13, (S)-N-(1-Cyclopropyl-2-(pyrrolidin-1-yl)ethyl)-4-fluoro-N,3-di-methylbenzamide]",3.6 µM
8,"CN(C(=O)c1ccc(Cl)cc1)[C@H](CN1CCCC1)C1CC1 [Example 3.14, (S)-4-Chloro-N-(1-cyclopropyl-2-(pyrrolidin-1-yl)ethyl)-N-methylbenzamide]",5.7 µM
9,"CN(C(=O)c1ccc(Br)cc1)[C@H](CN1CCCC1)C1CC1 [Example 3.15, (S)-4-Bromo-N-(1-cyclopropyl-2-(pyrrolidin-1-yl)ethyl)-N-methylbenzamide]",3.8 µM
10,"CN(C(=O)c1ccc(F)c(F)c1)[C@H](CN1CCCC1)C1CC1 [Example 3.16, (S)-N-(1-Cyclopropyl-2-(pyrrolidin-1-yl)ethyl)-3,4-difluoro-N-methylbenzamide]",13 µM
11,"Cc1cccc(C(=O)N(C)[C@H](CN2CCCC2)C2CC2)c1 [Example 3.17, (S)-N-(1-Cyclopropyl-2-(pyrrolidin-1-yl)ethyl)-N,3-dimethyl-benzamide]",9.3 µM
12,"COC[C@@H]1CCCN1C[C@H](C(C)C)N(C)C(=O)c1ccc(OC)cc1 [Example 3.18, 4-Methoxy-N-((S)-1-((S)-2-(methoxymethyl)pyrrolidin-1-yl)-3-methylbutan-2-yl)-N-methylbenzamide]",1.9 µM
13,"COC[C@@H]1CCCN1C[C@H](C(C)C)N(C)C(=O)c1ccc(Cl)cc1 [Example 3.19, 4-Chloro-N-((S)-1-((S)-2-(methoxymethyl)pyrrolidin-1-yl)-3-methylbutan-2-yl)-N-methylbenzamide]",6 µM
14,"COC[C@@H]1CCCN1C[C@H](C(C)C)N(C)C(=O)c1ccc(Br)cc1 [Example 3.20, 4-Bromo-N-((S)-1-((S)-2-(methoxymethyl)pyrrolidin-1-yl)-3-methylbutan-2-yl)-N-methylbenzamide]",8.4 µM
15,"CN(C(=O)c1ccc(Cl)cc1)[C@H](CN1CCC1)C1CC1 [Example 4.2, (S)-N-(2-(Azetidin-1-yl)-1-cyclopropylethyl)-4-chloro-N-methylbenzamide]",2.8 µM
16,"CN(C(=O)c1ccc(Br)cc1)[C@H](CN1CCC1)C1CC1 [Example 4.3, (S)-N-(2-(Azetidin-1-yl)-1-cyclopropylethyl)-4-bromo-N-methylbenzamide]",6.8 µM

# Now from value to molecule:
row,IC50,Structure (SMILES)
1,2.5 µM,"CC(C)[C@@H](CN1CC(O)C1)N(C)C(=O)c1ccc(Br)cc1 [Example 6.3, (S)-4-Bromo-N-(1-(3-hydroxyazetidin-1-yl)-3-methylbutan-2-yl)-N-methylbenzamide]"
2,9.8 µM,"CN(C(=O)c1ccc(F)cc1)[C@H](CN1CC(O)C1)C1CC1 [Example 7.4, (S)-N-(1-Cyclopropyl-2-(3-hydroxyazetidin-1-yl)ethyl)-4-fluoro-N-methylbenzamide]"
3,1.8 µM,"CN(C(=O)c1ccc(F)c(C(F)(F)F)c1)[C@H](CN1CC(O)C1)C1CC1 [Example 7.5, (S)-N-(1-Cyclopropyl-2-(3-hydroxyazetidin-1-yl)ethyl)-4-fluoro-N-methyl-3-(trifluoromethyl)benzamide]"
4,0.8 µM,"CCC[C@@H](CN1CC(O)C1)N(C)C(=O)c1ccc(F)c(Cl)c1 [Example 8.3, (S)-3-Chloro-4-fluoro-N-(1-(3-hydroxyazetidin-1-yl)pentan-2-yl)-N-methylbenzamide]"
5,0.2 µM,"CCC[C@@H](CN1CC(O)C1)N(C)C(=O)c1ccc(Cl)c(C)c1 [Example 8.4, (S)-4-Chloro-N-(1-(3-hydroxyazetidin-1-yl)pentan-2-yl)-N,3-di-methylbenzamide]"
6,0.58 µM,"CCC[C@@H](CN1CC(O)C1)N(C)C(=O)c1ccc(F)c(C(F)(F)F)c1 [Example 8.5, (S)-4-Fluoro-N-(1-(3-hydroxyazetidin-1-yl)pentan-2-yl)-N-methyl-3-(trifluoromethyl)benzamide]"
7,1.7 µM,"CCC[C@@H](CN1CC(O)C1)N(C)C(=O)c1ccc(Br)cc1 [Example 8.7, (S)-4-Bromo-N-(1-(3-hydroxyazetidin-1-yl)pentan-2-yl)-N-methylbenzamide]"
8,2.4 µM,"CCC[C@@H](CN1CC(O)C1)N(C)C(=O)c1cccc(C(F)(F)F)c1 [Example 8.8, (S)-N-(1-(3-Hydroxyazetidin-1-yl)pentan-2-yl)-N-methyl-3-(tri-fluoromethyl)benzamide]"
9,8.6 µM,"CCC[C@@H](CN1CC(O)C1)N(C)C(=O)c1ccc(C#N)cc1 [Example 8.9, (S)-4-Cyano-N-(1-(3-hydroxyazetidin-1-yl)pentan-2-yl)-N-methylbenzamide]"
10,4.3 µM,"CCC[C@@H](CN1CC(O)C1)N(C)C(=O)c1cccc(C)c1 [Example 8.10, (S)-N-(1-(3-Hydroxyazetidin-1-yl)pentan-2-yl)-N,3-dimethyl-benzamide]"
11,0.84 µM,"CCC[C@@H](CN1CC(O)C1)N(C)C(=O)c1ccc(F)c(C)c1 [Example 8.11, (S)-4-Fluoro-N-(1-(3-hydroxyazetidin-1-yl)pentan-2-yl)-N,3-di-methylbenzamide]"
12,4.3 µM,"Cc1cc(C(=O)N(C)[C@H](CN2C[C@H](O)[C@@H](O)C2)C(C)C)ccc1F [Example 8.12, N-((S)-1-((3S,4S)-3,4-Dihydroxypyrrolidin-1-yl)-3-methylbutan-2-yl)-4-fluoro-N,3-dimethylbenzamide]"
13,1.9 µM,"Cc1cc(C(=O)N(C)[C@H](CN2C[C@H](O)[C@@H](O)C2)C(C)C)ccc1Cl [Example 8.13, 4-Chloro-N-((S)-1-((3S,4S)-3,4-dihydroxypyrrolidin-1-yl)-3-methylbutan-2-yl)-N,3-dimethylbenzamide]"
14,5.8 µM,"CC(C)[C@@H](CN1C[C@H](O)[C@@H](O)C1)N(C)C(=O)c1ccc(Cl)cc1 [Example 8.14, 4-Chloro-N-((S)-1-((3S,4S)-3,4-dihydroxypyrrolidin-1-yl)-3-methylbutan-2-yl)-N-methylbenzamide]"
15,4.5 µM,"CC(C)[C@@H](CN1C[C@H](O)[C@@H](O)C1)N(C)C(=O)c1ccc(Cl)c(F)c1 [Example 8.15, 4-Chloro-N-((S)-1-((3S,4S)-3,4-dihydroxypyrrolidin-1-yl)-3-methylbutan-2-yl)-3-fluoro-N-methylbenzamide]"
16,16 µM,"Cc1cc(C(=O)N(C)[C@H](CN2C[C@@H](O)[C@H](O)C2)C(C)C)ccc1Cl [Example 8.16, 4-Chloro-N-((S)-1-((3R,4R)-3,4-dihydroxypyrrolidin-1-yl)-3-methylbutan-2-yl)-N,3-dimethylbenzamide]"
17,2 µM,"CC[C@@H](CN1CC(O)C1)N(C)C(=O)c1ccc(F)c(C)c1 [Example 8.17, (S)-4-Fluoro-N-(1-(3-hydroxyazetidin-1-yl)butan-2-yl)-N,3-dimethylbenzamide]"
18,2.6 µM,"Cc1cc(C(=O)N(C)[C@H](CN2CC(O)(C3CC3)C2)C2CC2)ccc1F [Example 9.1, (S)—N-(1-Cyclopropyl-2-(3-cyclopropyl-3-hydroxyazetidin-1-yl)ethyl)-4-fluoro-N,3-dimethylbenzamide]"
